Read-outs that look alike come from different tables or passages of the source.
Columns and labels:
FGFR = biological target: T1, FGFR; experiment: FGFR kinase HTRF assay; type: biochemical; conditions: enzyme inhibition, 10 μM ATP
T1 construct: fused on or other part: GST tag
Description: (§1) To determine inhibition of KDR, FGFR, EGFR, and PDGFR activity, kinase assays were conducted using an HTRF (Homogeneous Time Resolved Fluorescence) assay. This assay is described in A. J. Kolb et. al., Drug Discovery Today, 1998, 3(7), p 333.
(§2) Kinase activity assays were performed in 96-well polypropylene plates (Falcon) with a total volume of 90 μL in each well. Each well contained 1 μM KDR substrate (Biotin-EEEEYFELVAKKKK), 1 nM activated KDR, and a test compound with one of 8 assay concentrations ranging from 100 μM to […] (1:5 serial dilution). The kinase activity assay was done in the presence of 100 mM HEPES, pH 7.4, 1 mM DTT, 0.1 mM Na2VO4, 25 mM MgCl2, 50 mM NaCl (from KDR stock solution), 1% DMSO (from compound), 0.3 mM ATP (at Km concentration) and 0.02% BSA. The reaction was incubated at 37° C. for 30 minutes. To stop the KDR reaction, 72 μL of reaction mixture was transferred into a STOP plate containing 18 μL of revelation buffer (20 mM EDTA, 50 mM HEPES, pH 7.4, 0.02% BSA, 10 nM Eu-labelled anti-pY antibody (final conc. 2 nM), and 100 nM streptavidin (final conc. 20 nM)). After mixing, 35 μL of solution was transferred into duplicate wells of a 384-well black plate (Costar), and read at 615/665 nm on a Wallac Victor 5 reader.
FGFR, EGFR, and PDGFR activity assays were carried out as described above for the KDR activity assay with the following differences. GST-tagged FGFR enzyme was activated at room temperature for 1 hour in the following activation buffer: 100 mM HEPES, pH 7.4, 50 mM NaCl, 20 mM MgCl2, and 4 mM ATP. […] The rest of the assay was performed in the same manner as KDR assay.
(§3) Compound IC50 values were determined from duplicate sets of data, and calculated by using Excel and fitting data to equation Y=[(a−b)/{1+(X/c)^d]+b, where a and b are enzyme activity in the presence of no test inhibitor compound and an infinite amount of inhibitor test compound, respectively, c is the IC50 and d is the hill constant of the compound response. The IC50 value is the concentration of test compound that reduces by 50% the enzyme activity under the test conditions described.

[1] = tested on: Human umbilical vein endothelial cells (HUVEC), FGF-stimulated; experiment: FGF-stimulated HUVEC proliferation assay (BrdU); type: cell-based; conditions: BrdU labeling, FGF 5 ng per mL, 24 hour exposure, read-out: HUVEC/bFGFR IC50
Description: (§4) The antiproliferative activity of test compounds of this invention in cell-based assays was evaluated by BrdU assay using the BrdU kit (Roche Biochemicals 1-647-229). Human umbilical vein endothelial cells (Clonetics CC-2519) were cultured in EGM-2 (Clonetics CC-3162) medium and seeded at 10000 cells per well in a volume of 200 μL of EGM-2 (Clonetics CC-3162) media in a 96-well flat bottom plates (Costar 3595) overnight. After 24 hours of growth at 37° C. with 5% CO2, the incubation media was removed slowly by aspiration and the content of each well was washed with 300 μL pre-warmed EBM-2 (Clonetics CC-3156) containing 50 μg per mL of gentamycin and 50 ng per mL of amphotercin-B (Clonetics CC-4083). Subsequently, the remaining media was again aspirated and replaced with 160 μL per well of serum starvation media (EBM-2 supplemented with 1% heat inactivated FBS (Clonetics CC-4102), 50 μg per mL gentamycin and 50 ng per mL of amphotercin-B (Clonetics CC-4083), 10 units per mL of Wyeth-Ayerst heparin (NDC0641-0391-25), and 2 mM L-glutamine (GIBCO 25030-081). After serum starving the cells for 24 hours, 20 μL of test compound at 10× test concentration in serum starvation medium with 2.5% DMSO was added to the appropriate wells. The control wells contained 20 μL of serum starvation medium with 2.5% DMSO. Plates were returned to the incubator for 2 hours. After pre-incubating the cells with the test compounds for 2 hours, 20 μL of growth factors at 10×assay concentration diluted in serum starvation media, FGF at 50 ng per mL, or VEGF (R&D systems 293-VE) at 200 ng per mL were added. The final concentration of FGF in the assay was 5 ng per mL, and the final concentration of VEGF in the assays was 20 ng per mL. The growth factor free control wells had 20 μL per well of serum starvation media with the same amount of BSA as the wells with growth factors. The plates were returned to the incubator for an additional 22 hours.
(§5) After 24 hour exposure to the test compounds, the cells were labeled with BrdU (Roche Biochemicals 1-647-229), by adding 20 μL per well of BrdU labeling reagent that has been diluted (1:100) in serum starvation medium. The plates were then returned to the incubator for 4 hours. The labeling medium was removed by draining the medium onto paper towels. […] The plates were read at 450 nm with reference wavelength of 650 nm. The percent inhibition for each test compound was calculated by subtracting the absorbency of the blank (no cells) wells from all wells, then subtracting the division of the average absorbency of each test duplicate by the average of the controls from 1. […] The IC50 is determined from the linear regression of a plot of the logarithm of the concentration versus percent inhibition.

EGFR = EGFR (Homo sapiens, UniProt P00533); experiment: EGFR kinase HTRF assay; type: biochemical; conditions: enzyme inhibition, 0.5 μM ATP
Description: as §1, §2
The rest of the assay was performed in the same manner as the KDR assay.
as §3

KDR = biological target: T2, KDR (Homo sapiens, UniProt P35968); experiment: KDR kinase HTRF assay; type: biochemical; conditions: enzyme inhibition, 0.3 mM ATP
T2 construct: EEE-tag
Description: as §1
Prior to kinase reaction, recombinant EEE-tagged KDR was activated in the presence of activation buffer (50 mM HEPES, pH 7.4, 1 mM DTT, 10% glycerol, 150 mM NaCl, 0.1 mM EDTA, 26 mM MgCl2, and 4 mM ATP). The enzyme was incubated at 4° C. for 1 hour.
as §2, §3

PDGFR = PDGFR kinase HTRF assay; type: biochemical; conditions: enzyme inhibition, 2.3 μM ATP
Description: as §1, §2
The PDGFR kinase activity assay was performed with 1 μM substrate (Biotin-EEEEYFELV), 1.0 nM PDGFR, test compounds, 100 mM HEPES, pH 7.4, 1 mM DTT, 5 mM MgCl2, 2 mM MnCl2, 1% DMSO, 2.3 μM ATP (Km for PDGFR), 0.1 mM Na2VO4, and 0.02% BSA. The rest of the assay was performed in the same manner as the KDR assay.
as §3

[2] = tested on: Human umbilical vein endothelial cells (HUVEC), VEGF-stimulated; experiment: VEGF-stimulated HUVEC proliferation assay (BrdU); type: cell-based; conditions: BrdU labeling, VEGF 20 ng per mL, 24 hour exposure, read-out: HUVEC/VEFG IC50
Description: as §4, with “After pre-incubating the cells with the test compounds for 2 hours, 20 μL of growth factors at 10×assay concentration diluted in serum starvation media, FGF at 50 ng per mL, or VEGF (R&D systems 293-VE) at 200 ng per mL were added. The final concentration of FGF in the assay was 5 ng per mL, and the final concentration of VEGF in the assays was 20 ng per mL. The growth factor free control wells had 20 μL per well of serum starvation media with the same amount of BSA as the wells with growth factors. The plates were returned to the incubator for an additional 22 hours.” left out
as §5, with “medium.” for “medium. The plates were then returned to the incubator for 4 hours. The labeling medium was removed by draining the medium onto paper towels.”

Chain of EGFR (P00533 25-1210, species assumed): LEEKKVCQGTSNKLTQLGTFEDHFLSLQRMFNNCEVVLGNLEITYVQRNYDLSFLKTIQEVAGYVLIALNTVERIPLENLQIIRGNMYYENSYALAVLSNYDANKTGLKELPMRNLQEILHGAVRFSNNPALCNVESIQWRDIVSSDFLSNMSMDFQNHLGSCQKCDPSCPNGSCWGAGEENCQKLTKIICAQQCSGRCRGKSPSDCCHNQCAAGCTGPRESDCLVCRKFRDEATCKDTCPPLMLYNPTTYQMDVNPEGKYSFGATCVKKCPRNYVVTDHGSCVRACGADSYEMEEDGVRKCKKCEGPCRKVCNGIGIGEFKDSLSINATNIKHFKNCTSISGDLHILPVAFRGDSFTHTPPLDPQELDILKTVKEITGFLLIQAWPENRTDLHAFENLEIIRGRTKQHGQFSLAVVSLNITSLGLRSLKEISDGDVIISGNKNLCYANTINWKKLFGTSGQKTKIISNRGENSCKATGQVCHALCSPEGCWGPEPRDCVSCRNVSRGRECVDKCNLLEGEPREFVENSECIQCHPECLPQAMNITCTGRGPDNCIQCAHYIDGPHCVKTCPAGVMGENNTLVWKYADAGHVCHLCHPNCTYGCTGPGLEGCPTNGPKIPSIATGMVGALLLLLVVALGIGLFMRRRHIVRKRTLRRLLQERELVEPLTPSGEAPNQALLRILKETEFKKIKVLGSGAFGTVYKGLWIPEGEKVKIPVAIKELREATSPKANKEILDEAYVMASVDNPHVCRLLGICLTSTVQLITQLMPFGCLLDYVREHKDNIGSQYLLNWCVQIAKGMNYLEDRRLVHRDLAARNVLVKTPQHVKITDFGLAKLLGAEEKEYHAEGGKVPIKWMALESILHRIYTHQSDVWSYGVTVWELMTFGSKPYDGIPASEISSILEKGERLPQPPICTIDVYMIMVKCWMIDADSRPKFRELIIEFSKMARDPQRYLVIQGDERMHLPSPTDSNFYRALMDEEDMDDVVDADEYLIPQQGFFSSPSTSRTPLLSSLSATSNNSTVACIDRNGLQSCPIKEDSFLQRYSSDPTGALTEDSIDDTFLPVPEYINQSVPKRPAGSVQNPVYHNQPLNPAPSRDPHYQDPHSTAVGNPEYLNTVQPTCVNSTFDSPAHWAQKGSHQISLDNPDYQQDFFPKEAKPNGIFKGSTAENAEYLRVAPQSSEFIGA
T2 sequence (P35968 20-1356, species assumed): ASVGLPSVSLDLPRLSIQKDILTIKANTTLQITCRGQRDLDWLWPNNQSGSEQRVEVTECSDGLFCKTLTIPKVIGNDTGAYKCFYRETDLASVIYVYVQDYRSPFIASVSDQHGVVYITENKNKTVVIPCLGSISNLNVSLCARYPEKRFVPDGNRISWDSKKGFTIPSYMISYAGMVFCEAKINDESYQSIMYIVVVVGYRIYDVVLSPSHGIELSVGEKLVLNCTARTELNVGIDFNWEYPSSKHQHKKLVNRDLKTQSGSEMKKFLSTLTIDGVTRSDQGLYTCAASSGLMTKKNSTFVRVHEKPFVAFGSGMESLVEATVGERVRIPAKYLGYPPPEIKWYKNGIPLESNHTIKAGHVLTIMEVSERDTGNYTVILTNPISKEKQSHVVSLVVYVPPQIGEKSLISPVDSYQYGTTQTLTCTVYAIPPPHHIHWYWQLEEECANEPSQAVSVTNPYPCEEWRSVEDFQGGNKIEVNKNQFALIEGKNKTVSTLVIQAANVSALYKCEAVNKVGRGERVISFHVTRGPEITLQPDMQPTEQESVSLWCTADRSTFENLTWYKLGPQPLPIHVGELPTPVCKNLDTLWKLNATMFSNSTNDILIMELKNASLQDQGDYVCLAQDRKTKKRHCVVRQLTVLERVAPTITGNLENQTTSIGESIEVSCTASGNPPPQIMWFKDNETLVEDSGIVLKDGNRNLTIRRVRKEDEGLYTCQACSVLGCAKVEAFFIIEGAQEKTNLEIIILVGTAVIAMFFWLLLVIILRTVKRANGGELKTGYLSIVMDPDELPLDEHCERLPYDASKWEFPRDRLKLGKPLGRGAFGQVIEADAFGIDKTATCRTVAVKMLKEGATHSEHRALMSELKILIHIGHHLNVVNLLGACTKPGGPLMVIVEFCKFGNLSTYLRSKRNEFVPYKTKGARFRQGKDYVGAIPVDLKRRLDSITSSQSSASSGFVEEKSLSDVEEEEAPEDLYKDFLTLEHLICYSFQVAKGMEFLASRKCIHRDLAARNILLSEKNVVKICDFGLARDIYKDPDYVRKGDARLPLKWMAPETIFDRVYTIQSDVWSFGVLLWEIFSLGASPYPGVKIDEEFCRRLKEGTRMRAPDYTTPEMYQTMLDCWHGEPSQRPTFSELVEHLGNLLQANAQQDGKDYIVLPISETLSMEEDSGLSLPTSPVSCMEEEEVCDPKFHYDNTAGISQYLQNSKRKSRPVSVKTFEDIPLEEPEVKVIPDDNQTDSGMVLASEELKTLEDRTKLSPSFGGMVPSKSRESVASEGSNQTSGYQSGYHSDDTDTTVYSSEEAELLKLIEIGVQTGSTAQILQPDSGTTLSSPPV

Structure (SMILES) | IC50 (FGFR) [nM] | IC50 (PDGFR) [nM] | melting point [°C] | IC50 (FGFR; methanesulfonate salt) [nM] | IC50 ([1]; methanesulfonate salt) [nM] | IC50 (EGFR) [nM] | IC50 (KDR) [nM] | IC50 (PDGFR; methanesulfonate salt) [nM] | IC50 [2] [nM] | IC50 ([1]; Homo sapiens, HUVEC, 24 h) [nM]
COc1ccc(N2Cc3cnc(Nc4ccccc4)nc3N(c3ccccc3)C2=O)cc1.CS(=O)(=O)O [Example 1h, 3-(4-Methoxyphenyl)-1-phenyl-7-(phenylamino)-1,3,4-trihydropyrimidino[4,5-d]pyrimidin-2-one methanesulfonate salt] | – | – | 245 to 251 | 170 | 430 | 350 | 76 | 150 | – | –
COc1ccc(N2Cc3cnc(N(C(=O)OCOC(=O)CN(C)C)c4ccccc4)nc3N(c3ccccc3)C2=O)cc1 [Example 5a] | – | – | 172 | – | – | – | – | – | – | –
COc1ccc(N2Cc3cnc(Nc4ccccc4)nc3N(c3ccccc3)C2=O)cc1 [Example 1g, 3-(4-Methoxyphenyl)-1-phenyl-7-(phenylamino)-1,3,4-trihydropyrimidino[4,5-d]pyrimidin-2-one] | 190 | 130 | – | – | – | 360 | 44 | – | 120 | 310

The next lines start with results.

IC50 (FGFR) [nM] | IC50 (PDGFR) [nM] | Structure (SMILES) | melting point [°C] | IC50 (FGFR; methanesulfonate salt) [nM] | IC50 ([1]; methanesulfonate salt) [nM] | IC50 (EGFR) [nM] | IC50 (KDR) [nM] | IC50 (PDGFR; methanesulfonate salt) [nM] | IC50 [2] [nM] | IC50 ([1]; Homo sapiens, HUVEC, 24 h) [nM]
110 | 64 | COc1ccc(N2Cc3cnc(Nc4ccc(O)cc4)nc3N(c3ccccc3)C2=O)cc1 [Example 18, 7-[(4-Hydroxyphenyl)amino]-3-(4-methoxyphenyl)-1-phenyl-1,3,4-trihydropyrimidino[4,5-d]pyrimidin-2-one] | – | – | – | 130 | 29 | – | 63 | 150
91 | 82 | COc1ccc(Nc2ncc3c(n2)N(c2ccccc2)C(=O)N(c2ccc(OC)cc2)C3)cc1 [Example 20, 3-(4-Methoxyphenyl)-7-[(4-methoxyphenyl)amino]-1-phenyl-1,3,4-trihydropyrimidino[4,5-d]pyrimidin-2-one] | – | – | – | 180 | 24 | – | 96 | 350
